The NIST ThermoML archive (doi:10.1021/je7000232)
Numbers after ± are expanded uncertainties.

What was measured:
[1] = Liquid, Closed cell (Static) method
[2] = xn = mol fraction of the nth substance listed; details: 293.15 K, 101 kPa, Liquid, Capillary tube (Ostwald / Ubbelohde) method
[3] = excess molar enthalpy (molar enthalpy of mixing); xn = mol fraction of the nth substance listed; details: 101 kPa, Liquid

O [water]
[1]
Details	vapor or sublimation pressure [kPa]
303.15 K	4.24 ± 0.33
313.15 K	7.38 ± 0.33
323.15 K	12.34 ± 0.35

CC(O)C(=O)[O-].C[N+](C)(C)CCO [choline lactate] + O
[2]
Details	viscosity [mPa·s]
x2 = 0.0272	5850
x2 = 0.382	940 ± 440
x2 = 0.546	336 ± 94
x2 = 0.731	75 ± 10
x2 = 0.878	12.5 ± 1.1
x2 = 0.915	6.5 ± 0.4
x2 = 0.941	3.9 ± 0.3

[3]
Details	excess molar enthalpy [kcal/mol]
303.15 K, x2 = 0.1585	-0.938 ± 0.0765
303.15 K, x2 = 0.2269	-1.51 ± 0.122
303.15 K, x2 = 0.3051	-2.04 ± 0.165
303.15 K, x2 = 0.3528	-2.4 ± 0.194
303.15 K, x2 = 0.4853	-3.35 ± 0.263
303.15 K, x2 = 0.671	-4.12 ± 0.335
303.15 K, x2 = 0.8719	-4.37 ± 0.359
303.15 K, x2 = 0.9078	-3.55 ± 0.287
303.15 K, x2 = 0.9751	-1.87 ± 0.153
303.15 K, x2 = 0.9878	-0.604 ± 0.0502
313.15 K, x2 = 0.1687	-0.723 ± 0.0598
313.15 K, x2 = 0.2123	-1.1 ± 0.0908
313.15 K, x2 = 0.3065	-1.57 ± 0.127
313.15 K, x2 = 0.3943	-2.11 ± 0.17
313.15 K, x2 = 0.5019	-2.6 ± 0.21
313.15 K, x2 = 0.603	-2.9 ± 0.234
313.15 K, x2 = 0.738	-3.3 ± 0.263
313.15 K, x2 = 0.8794	-3.48 ± 0.287
313.15 K, x2 = 0.9535	-2.47 ± 0.198
313.15 K, x2 = 0.9769	-1.55 ± 0.127
323.15 K, x2 = 0.16	-0.368 ± 0.0311
323.15 K, x2 = 0.2662	-0.649 ± 0.055
323.15 K, x2 = 0.331	-0.856 ± 0.0693
323.15 K, x2 = 0.5059	-1.55 ± 0.127
323.15 K, x2 = 0.6257	-2.15 ± 0.174
323.15 K, x2 = 0.7785	-2.6 ± 0.21
323.15 K, x2 = 0.8805	-2.09 ± 0.17
323.15 K, x2 = 0.9555	-1.1 ± 0.0908
323.15 K, x2 = 0.9884	-0.239 ± 0.021
